Reference: article PMC9963398, “Discovery of New Quinolone-Based Diarylamides as Potent B-RAF^V600E/C-RAF Kinase Inhibitors Endowed with Promising In Vitro Anticancer Activity” (International Journal of Molecular Sciences, 2023)

Legend:
ACHN = test: NCI-60 five-dose SRB assay; assay type: cell-based; conditions: Homo sapiens, Renal cancer, five-dose test
Experimental: (§1) The anticancer screening of target compounds over a full panel of 60 human cancer cell lines was carried out using Sulforhodamine B (SRB) assay at the National Cancer Institute (NCI), Bethesda, Maryland, USA, employing the standard protocol.

HCT-116 = test: NCI-60 five-dose SRB assay; assay type: cell-based; conditions: Homo sapiens; HCT-116, Colon cancer, five-dose test
Experimental: as §1

TK-10 = test: NCI-60 five-dose SRB assay; assay type: cell-based; conditions: Homo sapiens; TK-10, Renal cancer, five-dose test
Experimental: as §1

UACC-62 = test: NCI-60 five-dose SRB assay; assay type: cell-based; conditions: Homo sapiens; UACC-62, Melanoma, five-dose test
Experimental: as §1

SF-295 = test: NCI-60 five-dose SRB assay; assay type: cell-based; conditions: Homo sapiens; SF-295, CNS cancer, five-dose test
Experimental: as §1

SR = test: NCI-60 five-dose SRB assay; assay type: cell-based; conditions: Homo sapiens, Leukemia, five-dose test
Experimental: as §1

CAKI-1 = test: NCI-60 five-dose SRB assay; assay type: cell-based; conditions: Homo sapiens; CAKI-1, Renal cancer, five-dose test
Experimental: as §1

OVCAR-5 = test: NCI-60 five-dose SRB assay; assay type: cell-based; conditions: Homo sapiens; OVCAR-5, Ovarian cancer, five-dose test
Experimental: as §1

HOP-92 = test: NCI-60 five-dose SRB assay; assay type: cell-based; conditions: Homo sapiens; HOP-92, NSCL cancer, five-dose test
Experimental: as §1

SK-MEL-5 = test: NCI-60 five-dose SRB assay; assay type: cell-based; conditions: Homo sapiens; SK-MEL-5, Melanoma, five-dose test
Experimental: as §1

NCI-H522 = test: NCI-60 five-dose SRB assay; assay type: cell-based; conditions: Homo sapiens; NCI-H522, NSCL cancer, five-dose test
Experimental: as §1

COLO 205 = test: NCI-60 five-dose SRB assay; assay type: cell-based; conditions: Homo sapiens; COLO 205, Colon cancer, five-dose test
Experimental: as §1

HCC-2998 = test: NCI-60 five-dose SRB assay; assay type: cell-based; conditions: Homo sapiens; HCC-2998, Colon cancer, five-dose test
Experimental: as §1

OVCAR-3 = test: NCI-60 five-dose SRB assay; assay type: cell-based; conditions: Homo sapiens; OVCAR-3, Ovarian cancer, five-dose test
Experimental: as §1

DU-145 = test: NCI-60 five-dose SRB assay; assay type: cell-based; conditions: Homo sapiens; DU-145, Prostate cancer, five-dose test
Experimental: as §1

SK-OV-3 = test: NCI-60 five-dose SRB assay; assay type: cell-based; conditions: Homo sapiens; SK-OV-3, Ovarian cancer, five-dose test
Experimental: as §1

NCI-H460 = test: NCI-60 five-dose SRB assay; assay type: cell-based; conditions: Homo sapiens; NCI-H460, NSCL cancer, five-dose test
Experimental: as §1

CCRF-CEM = test: NCI-60 five-dose SRB assay; assay type: cell-based; conditions: Homo sapiens, Leukemia, five-dose test
Experimental: as §1

NCI-H226 = test: NCI-60 five-dose SRB assay; assay type: cell-based; conditions: Homo sapiens; NCI-H226, NSCL cancer, five-dose test
Experimental: as §1

MOLT-4 = test: NCI-60 five-dose SRB assay; assay type: cell-based; conditions: Homo sapiens; MOLT-4, Leukemia, five-dose test
Experimental: as §1

OVCAR-8 = test: NCI-60 five-dose SRB assay; assay type: cell-based; conditions: Homo sapiens; OVCAR-8, Ovarian cancer, five-dose test
Experimental: as §1

U251 = test: NCI-60 five-dose SRB assay; assay type: cell-based; conditions: Homo sapiens, U-251; U251, CNS cancer, five-dose test
Experimental: as §1

HS 578T = test: NCI-60 five-dose SRB assay; assay type: cell-based; conditions: Homo sapiens, Breast cancer, five-dose test
Experimental: as §1

SF-539 = test: NCI-60 five-dose SRB assay; assay type: cell-based; conditions: Homo sapiens; SF-539, CNS cancer, five-dose test
Experimental: as §1

HL-60(TB) = test: NCI-60 five-dose SRB assay; assay type: cell-based; conditions: Homo sapiens, Leukemia, five-dose test
Experimental: as §1

A498 = test: NCI-60 five-dose SRB assay; assay type: cell-based; conditions: Homo sapiens; A498, Renal cancer, five-dose test
Experimental: as §1

UO-31 = test: NCI-60 five-dose SRB assay; assay type: cell-based; conditions: Homo sapiens; UO-31, Renal cancer, five-dose test
Experimental: as §1

HT29 = test: NCI-60 five-dose SRB assay; assay type: cell-based; conditions: Homo sapiens, HT-29; HT29, Colon cancer, five-dose test
Experimental: as §1

SN12C = test: NCI-60 five-dose SRB assay; assay type: cell-based; conditions: Homo sapiens, Renal cancer, five-dose test
Experimental: as §1

IGROV1 = test: NCI-60 five-dose SRB assay; assay type: cell-based; conditions: Homo sapiens, IGROV-1; IGROV1, Ovarian cancer, five-dose test
Experimental: as §1

T-47D = test: NCI-60 five-dose SRB assay; assay type: cell-based; conditions: Homo sapiens, T47D, Breast cancer, five-dose test
Experimental: as §1

SK-MEL-2 = test: NCI-60 five-dose SRB assay; assay type: cell-based; conditions: Homo sapiens; SK-MEL-2, Melanoma, five-dose test
Experimental: as §1

OVCAR-4 = test: NCI-60 five-dose SRB assay; assay type: cell-based; conditions: Homo sapiens; OVCAR-4, Ovarian cancer, five-dose test
Experimental: as §1

MDA-MB-435 = test: NCI-60 five-dose SRB assay; assay type: cell-based; conditions: Homo sapiens; MDA-MB-435, Melanoma, five-dose test
Experimental: as §1

NCI-H23 = test: NCI-60 five-dose SRB assay; assay type: cell-based; conditions: Homo sapiens; NCI-H23, NSCL cancer, five-dose test
Experimental: as §1

MCF7 = test: NCI-60 five-dose SRB assay; assay type: cell-based; conditions: Homo sapiens; MCF7, Breast cancer, five-dose test
Experimental: as §1

MDA-MB-231/ATCC = test: cells; conditions: Homo sapiens
Experimental: as §1

PC-3 = test: cells; conditions: Homo sapiens
Experimental: as §1

MDA-MB-468 = test: cells; conditions: Homo sapiens
Experimental: as §1

C-RAF = C-RAF (Homo sapiens, UniProt P04049); test: HotSpot kinase assay (RBC), C-RAF; conditions: IC50 C-RAF
Text: Reaction Biology Corporation (RBC) Kinase HotSpotSM service was utilized for cell-free biochemical kinase evaluation of the target compounds according to the reported assay protocol [46].

B-RAF^V600E = molecular target: T1, B-RAF^V600E (Homo sapiens, UniProt P15056, V600E); test: HotSpot kinase assay (RBC), B-RAF^V600E; assay type: biochemical
T1 construct: purchased Reaction Biology Corporation (RBC), Kinase HotSpot service

[1] = 10 µM ATP, 10-dose singlicate IC50 mode

C-RAF, sequence (P04049 whole entry): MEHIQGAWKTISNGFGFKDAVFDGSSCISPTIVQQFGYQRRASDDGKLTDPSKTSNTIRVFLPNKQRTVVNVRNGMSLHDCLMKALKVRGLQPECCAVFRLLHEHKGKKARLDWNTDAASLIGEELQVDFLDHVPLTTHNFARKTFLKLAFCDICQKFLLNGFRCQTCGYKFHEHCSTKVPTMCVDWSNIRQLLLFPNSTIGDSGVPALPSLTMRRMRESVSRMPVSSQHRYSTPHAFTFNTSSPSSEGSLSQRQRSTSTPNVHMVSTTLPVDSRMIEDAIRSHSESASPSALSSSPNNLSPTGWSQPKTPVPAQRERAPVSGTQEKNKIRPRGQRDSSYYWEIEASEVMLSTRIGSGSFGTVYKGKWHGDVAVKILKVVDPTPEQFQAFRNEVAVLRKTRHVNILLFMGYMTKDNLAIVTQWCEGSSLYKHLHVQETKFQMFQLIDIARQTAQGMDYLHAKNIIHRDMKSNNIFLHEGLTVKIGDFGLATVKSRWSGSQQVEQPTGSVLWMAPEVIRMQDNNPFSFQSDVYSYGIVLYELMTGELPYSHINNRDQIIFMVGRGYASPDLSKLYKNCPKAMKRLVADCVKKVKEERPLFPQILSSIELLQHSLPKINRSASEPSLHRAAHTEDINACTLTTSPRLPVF
T1 sequence (P15056 whole entry V600E): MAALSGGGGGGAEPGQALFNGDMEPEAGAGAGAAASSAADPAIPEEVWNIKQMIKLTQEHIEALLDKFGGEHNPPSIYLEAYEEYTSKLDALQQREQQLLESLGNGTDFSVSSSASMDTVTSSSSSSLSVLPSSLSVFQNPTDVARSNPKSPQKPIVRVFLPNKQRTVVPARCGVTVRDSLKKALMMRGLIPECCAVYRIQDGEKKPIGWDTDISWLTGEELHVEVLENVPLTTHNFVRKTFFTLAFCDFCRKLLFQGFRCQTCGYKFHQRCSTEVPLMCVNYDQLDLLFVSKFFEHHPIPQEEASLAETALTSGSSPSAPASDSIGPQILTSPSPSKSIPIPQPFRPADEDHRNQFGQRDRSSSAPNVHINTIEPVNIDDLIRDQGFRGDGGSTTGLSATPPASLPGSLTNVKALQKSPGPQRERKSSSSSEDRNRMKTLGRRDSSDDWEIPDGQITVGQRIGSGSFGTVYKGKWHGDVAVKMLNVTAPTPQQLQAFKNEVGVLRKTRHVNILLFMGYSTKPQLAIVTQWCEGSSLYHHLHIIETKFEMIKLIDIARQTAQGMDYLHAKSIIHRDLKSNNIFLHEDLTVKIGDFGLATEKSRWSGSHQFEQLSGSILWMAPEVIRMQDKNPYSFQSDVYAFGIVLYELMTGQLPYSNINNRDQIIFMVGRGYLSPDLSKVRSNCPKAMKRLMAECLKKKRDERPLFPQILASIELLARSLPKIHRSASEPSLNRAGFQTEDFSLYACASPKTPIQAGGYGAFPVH

In the case of CN1CCN(Cc2ccc(C(=O)Nc3cccc(Nc4ccc5cc(O)ccc5n4)c3)cc2C(F)(F)F)CC1 [Compound 18a, N-(3-((6-hydroxyquinolin-2-yl)amino)phenyl)-4-((4-methylpiperazin-1-yl)methyl)-3-(trifluoromethyl)benzamide], the GI50 (ACHN) is reported as 7.59 µM, the GI50 (HCT-116) is reported as 3.93 µM and the GI50 (TK-10) is reported as 21.4 µM. The GI50 (UACC-62) was 15.4 µM, the GI50 (SF-295) was 2.33 µM and the GI50 (SR) was 2.68 µM. It also gave a GI50 (CAKI-1) of 11.9 µM, a GI50 (OVCAR-5) of 14.2 µM and a GI50 (HOP-92) of 3.39 µM. For the same compound, the GI50 (SK-MEL-5) was 2.35 µM, the GI50 (NCI-H522) was 4.82 µM and the GI50 (COLO 205) was 10.2 µM. The GI50 (HCC-2998) was 2.39 µM, the GI50 (OVCAR-3) was 11.2 µM and the GI50 (DU-145) was 10.5 µM. The GI50 (SK-OV-3) was 16.5 µM, the GI50 (NCI-H460) was 3.84 µM and the GI50 (CCRF-CEM) was 3.48 µM. It also gave a GI50 (NCI-H226) of 16 µM, a GI50 (MOLT-4) of 3.52 µM and a GI50 (OVCAR-8) of 13.2 µM. The GI50 (U251) was 2.17 µM, the GI50 (HS 578T) was 4.17 µM and the GI50 (SF-539) was 1.98 µM. The GI50 (HL-60(TB)) was 2.58 µM, the GI50 (A498) was 22.5 µM and the GI50 (UO-31) was 13.4 µM. The GI50 (HT29) was 3.37 µM, the GI50 (SN12C) was 14.1 µM and the GI50 (IGROV1) was 16.6 µM. The GI50 (T-47D) was 14.6 µM, the GI50 (SK-MEL-2) was 13.5 µM and the GI50 (OVCAR-4) was 11.2 µM. The GI50 (MDA-MB-435) was 8.53 µM, the GI50 (NCI-H23) was 13.9 µM and the GI50 (MCF7) was 2.46 µM. The GI50 (MDA-MB-231/ATCC) was 2.54 µM, the GI50 (PC-3) was 4.68 µM and the GI50 (MDA-MB-468) was 2.23 µM. For the same compound, the IC50 (C-RAF; 1 µM ATP) was 0.0293 ± 0.009 µM, the IC50 (C-RAF; [1]) was 0.0676 ± 0.0051 µM and the IC50 (B-RAF^V600E; 1 µM ATP) was 0.0843 ± 0.009 µM. It also gave an IC50 (B-RAF^V600E; [1]) of 0.114 ± 0.00495 µM.

For CN1CCCN(Cc2ccc(C(=O)Nc3cccc(Nc4ccc5cc(O)ccc5n4)c3)cc2C(F)(F)F)CC1 [Compound 18b, N-(3-((6-hydroxyquinolin-2-yl)amino)phenyl)-4-((4-methyl-1,4-diazepan-1-yl)methyl)-3-(trifluoromethyl)benzamide], the GI50 (ACHN) was 19.7 µM, the GI50 (HCT-116) was 6.51 µM and the GI50 (TK-10) was 18.5 µM. The GI50 (UACC-62) was 15.9 µM, the GI50 (SF-295) was 17.3 µM and the GI50 (SR) was 1.89 µM. For the same compound, the GI50 (CAKI-1) was 14.1 µM, the GI50 (OVCAR-5) was 15.3 µM and the GI50 (HOP-92) was 10.4 µM. For the same compound, the GI50 (SK-MEL-5) was 16.1 µM, the GI50 (NCI-H522) was 17 µM and the GI50 (COLO 205) was 18.5 µM. It also gave a GI50 (HCC-2998) of 16.5 µM, a GI50 (OVCAR-3) of 16.3 µM and a GI50 (DU-145) of 16.9 µM. It also gave a GI50 (SK-OV-3) of 17.6 µM, a GI50 (NCI-H460) of 18 µM and a GI50 (CCRF-CEM) of 4.94 µM. The GI50 (NCI-H226) was 13.8 µM, the GI50 (MOLT-4) was 2.05 µM and the GI50 (OVCAR-8) was 18.9 µM. For the same compound, the GI50 (U251) was 14.8 µM, the GI50 (HS 578T) was 14.8 µM and the GI50 (SF-539) was 11.3 µM. The GI50 (HL-60(TB)) was 11.9 µM, the GI50 (A498) was 17.6 µM and the GI50 (UO-31) was 15.2 µM. For the same compound, the GI50 (HT29) was 13.3 µM, the GI50 (SN12C) was 17.3 µM and the GI50 (IGROV1) was 17.2 µM. The GI50 (T-47D) was 15.8 µM, the GI50 (SK-MEL-2) was 17.2 µM and the GI50 (OVCAR-4) was 15 µM. It also gave a GI50 (MDA-MB-435) of 10.4 µM, a GI50 (NCI-H23) of 16.8 µM and a GI50 (MCF7) of 9.83 µM. It also gave a GI50 (MDA-MB-231/ATCC) of 13.9 µM, a GI50 (PC-3) of 13.1 µM and a GI50 (MDA-MB-468) of 8.88 µM. For the same compound, the IC50 (C-RAF; [1]) was 0.161 ± 0.0301 µM and the IC50 (B-RAF^V600E; [1]) was 0.227 ± 0.00355 µM.
